The pIC50 is −log10 of the IC50, conventionally taken in molar units.

This note sets out measurements from article PMC10426190 (Breast Cancer Research : BCR, 2023).

For data set [1], the target named is T1, ERα (Homo sapiens, UniProt P03372).
T1 sequence (P03372 1-595): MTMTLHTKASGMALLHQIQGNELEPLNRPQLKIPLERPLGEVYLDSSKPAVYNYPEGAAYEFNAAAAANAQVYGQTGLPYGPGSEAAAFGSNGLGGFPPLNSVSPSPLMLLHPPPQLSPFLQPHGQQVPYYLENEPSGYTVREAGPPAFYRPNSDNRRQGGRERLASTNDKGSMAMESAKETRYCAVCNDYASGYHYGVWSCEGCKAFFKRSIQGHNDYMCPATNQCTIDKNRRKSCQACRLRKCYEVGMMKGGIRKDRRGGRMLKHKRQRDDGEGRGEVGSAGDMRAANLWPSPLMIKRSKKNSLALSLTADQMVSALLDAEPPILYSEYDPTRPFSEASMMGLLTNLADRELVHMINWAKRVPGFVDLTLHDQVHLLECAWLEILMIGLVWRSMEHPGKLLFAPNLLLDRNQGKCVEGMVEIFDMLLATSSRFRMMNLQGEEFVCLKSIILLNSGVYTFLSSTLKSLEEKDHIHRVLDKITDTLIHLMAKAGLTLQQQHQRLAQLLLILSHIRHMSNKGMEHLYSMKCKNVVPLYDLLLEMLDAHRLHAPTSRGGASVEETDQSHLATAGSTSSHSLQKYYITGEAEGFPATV
The data set can be described thus: ERα degradation assay, In-Cell Western, MCF-7 WT. It is filed as cell-based. Further details: MCF-7 wild type and Y537S mutant cells were seeded at a density of 5000 cells per well; host or cells: MCF-7. The settings on record: 24 h. As to the method:
MCF-7 wild type and Y537S mutant cells were seeded at a density of 5000 cells per well into flat clear bottom tissue cultured-treated 384-well plates (Greiner) in culture media and after overnight incubation cells were treated with compounds for 24 h. Then plates were fixed with 4% formaldehyde, permeabilized with ice-cold methanol, and blocked with Odyssey Blocking Buffer (LI-COR). The fixed cells were incubated with rabbit anti- ERα antibody (CST#8644S) and mouse anti-GAPDH antibody (Abcam #ab8245), washed and stained with IRDye 800 Goat anti-Rabbit IgG (Licor#926-32211) and IRDye 680 Goat anti-Mouse IgG (Licor#926-68070). ERα levels were quantitated using Sapphire RGBNIR (Azure), the acumen eX3 imaging system. […] IC50 and Emax were analyzed with IDBS XLfit.
MCF7 cells were seeded in a 384-well plate and linear-dilution compounds were administrated in duplicate for each treatment. After incubation for 24 h, Cells in the assay pate were treated as described in methods. ERα levels were quantified by immunofluorescence assay. […] Cells were dispended into 96-well plates and incubated for 24 h with compounds (100 nM) treatment. […] Cells were seeded in 384-well plates and treated with linear-dilution compounds for 7 days of incubation. Cell viability was assessed using CellTiter-Glo. Cell growth inhibition is presented as a percentage of CellTiterGlo activity relative to the vehicle control. […] Then cells in each well were collected and the targeting proteins in lysate supernatant were detected by WB
Cells were seeded at a density of 5,000 cells per well into 384-well plates and treated with linear-titration compounds in duplicate for 24 hours. ERα levels were quantified by immunofluorescence assay as described in the method. The detection signals were captured by Odyssey.

Data set [2] relates to GREB1, AGR3 transcription in T47D, EFM-19, HCC1500. As to the kind of experiment: ER pathway activity, RT-QPCR of GREB1 and AGR3. Conditions: 1 μM, 1 nM E2, 24 h. It is filed as cell-based, human. As to the method:
HCC1500, T47D, and EFM-19 were cultured in hormone deprivation media with 10% charcoal-stripped FBS for at least 3 days before assay. Trypsinized cells were seeded in a 12-well plate, stimulated with 1 nM E2, and treated with/without 1 μM compounds for 24 h. Total RNA was extracted using QIAGEN RNeasy Plus Mini Kit (Qiagen), according to the manufacturer’s protocol. The concentration of RNA samples was determined using NanoDrop 8000 (Thermo Scientific). SYBR Green expression assay (Qiagen#204154) was used to quantify GREB1 (Forward primer: […]; reverse primer: […]), AGR3 (Forward primer: […]; reverse primer: […]) and the house-keeping genes actin (OriGene#HP204660). The relative quantities were determined using ΔΔ threshold cycle (ΔΔCt), according to the manufacturer’s instructions (Applied Biosystems).
MCF7 with hormone-deprived pre-treatment were administrated ER ligands or not present with 1 nM E2 stimulation for 24 h incubation in a 12-well plate. Total mRNA was isolated from treated cells and sequenced on an Illumina HiSeq X Ten platform. FPKM of each gene was calculated using Cufflinks and Differential expression genes analysis by using the DESeq (2012) R package. Four separate clusters were obtained. […] Endometrial height was assessed from the basement membrane to the luminal border (scale bar in green lines: 200 μm), Arrows indicate the uterine epithelium (e).

The subject of data set [3] is MCF-7 Y537S cells. As to the kind of experiment: Viability assay (CellTiter-Glo, 7 days), MCF-7 Y537S. Format: cell-based, human. As for the experimental part: Trypsinized cells were dispensed into 384-well plates in culture media and after overnight incubation cells were treated with compounds for 7 days. Cell viability was assessed using CellTiter-Glo (Promega) according to the manufacturer’s protocol and relative luminescence units (RLU) were measured using an Envision Multilabel Reader (Perkin Elmer). […] IC50 and Imax were analyzed with IDBS XLfit.
Statistical and graphical presentations were performed using IDBS XLfit and GraphPad Prism 9. For cell proliferation assays, the IC50 was calculated by fitting a dose–response curve using a nonlinear regression model with a log(inhibitor) vs response curve fit. […] P-values < 0.05 were considered statistically significant.
For orientation: Cellular ATP, detected with luciferase, serves as a proxy for viable cell number.

pIC50: −log10 of the molar value.

As for `C[C@]12CC[C@@H]3c4ccc(O)cc4C[C@@H](CCCCCCCCC[S+]([O-])CCCC(F)(F)C(F)(F)F)[C@H]3[C@@H]1CC[C@@H]2O` (stereo partly shown) [Fulvestrant], in data set [1], the “ERα degradation assay Dmax [% Ful.]” value is given as 97.69 % Ful and the “ERα degradation assay Dmax [% Veh.]” value came to 56.04 % Veh. Moreover, in data set [2] (T47D, EFM-19, and HCC1500), the “AGR3 and GREB1 transcription” value is “significantly downregulated”. In data set [3], the “Viability assay Emax [% Ful.]” value is reported as 95.49 % Ful and the “Viability assay Emax [% Veh.]” value is on record as 65.05 % Veh. This compound also showed a pIC50 in data set [3] (Homo sapiens, MCF7, 168 h) of 7.79.

In the case of `CC/C(=C(\c1ccc(O)cc1)c1ccc(OCCN(C)C)cc1)c1ccccc1` [4-OH-tamoxifen], the AGR3 transcription result in data set [2] (EFM-19 and HCC1500) is “significant increase”.
